# Like-named read-outs stand apart in the source and are kept apart here.
# Tests used:
# Assay type in all cases: cell-based, Escherichia coli
# E. coli EKO-35 = assay: microbe, parasite or virus in culture; conditions: Escherichia coli, EKO35, technical duplicate
# Outline: (§1)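 Turbidity (OD600, pre-incubation subtracted) defined growth after 18 h at 37 °C in MHB II. The inoculum was diluted 1/2000 from an OD600 ~1.0 PBS suspension of an overnight LB culture. Compounds were run as duplicate twofold dilutions.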
# E. coli ΔtolC = assay: microbe, parasite or virus in culture
# Outline: as §1
# [1] = test system: wild-type E. coli K-12 str. BW25113; assay: microbe, parasite or virus in culture; conditions: Escherichia coli, BW25113, technical duplicate
# Outline: as §1
# EKO-35 araC::acrB = assay: MIC susceptibility profiling, efflux platform; conditions: Escherichia coli; Table 13A; non-porinated; technical duplicate; read-out: Minimum Inhibitory Concentration, EKO-35 araC::acrB
# Outline: as §1
# EKO-35 araC::acrD = assay: MIC susceptibility profiling, efflux platform
# Outline: as §1
# EKO-35 araC::mdtBC = assay: MIC susceptibility profiling, efflux platform; conditions: Escherichia coli; Table 13B; non-porinated; technical duplicate; read-out: Minimum Inhibitory Concentration, EKO-35 araC::mdtBC
# Outline: as §1
# [2] = test system: EKO-35 araC::mexCD (MexCD from P. aeruginosa); assay: MIC susceptibility profiling, efflux platform; conditions: Table 13B; non-porinated; technical duplicate; read-out: Minimum Inhibitory Concentration, EKO-35 araC::mexCD
# Outline: as §1
# EKO-35-Pore = assay: MIC susceptibility profiling, porinated strain; conditions: Escherichia coli, technical duplicate
# Outline: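 MIC values come from background-corrected OD600 readings (pre-incubation OD subtracted) after 18 h at 37 °C and 900 rpm in MHB II. Compounds were tested in duplicate as 2-fold dilutions. The inoculum came from 18 h LB cultures adjusted to OD600 ~1.0 and diluted 1/2000, and the pore-bearing strains were vancomycin-checked beforehand.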
# wild-type E. coli K-12 = test system: wild-type E. coli K-12
# Outline: (§2)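 Checkerboard broth microdilution per CLSI in MHB II, inocula by colony resuspension; MIC taken as lowest concentration with no growth by OD600. FICI = (CA/MICA)+(CB/MICB), drug A being PAβN or NMP and drug B the antibiotic; synergy <0.5, additive >0.5–1.0, indifferent >1.0–2.0, antagonism >2.0.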
# [3] = test system: EKO-35 strains producing different efflux pumps (EKO-35 araC::X); assay: Checkerboard synergy (FICI) of PAβN or NMP with antibiotics
# Outline: as §2
# [4] = EKO-35 acrEF, PAβN + antibiotic
# [5] = strain EKO-35 acrD, NMP + antibiotic
structure (smiles),measurement,setting,value
Cc1onc(-c2ccccc2)c1C(=O)N[C@@H]1C(=O)N2[C@@H]1SC(C)(C)[C@@H]2C(=O)O [oxacillin],MIC,"E. coli EKO-35; Table 10, without pore, read-out: Minimum inhibitory concentration (MIC), EKO-35",0.625 µg/mL
same,MIC,"E. coli EKO-35; Table 13A, non-porinated, read-out: Minimum Inhibitory Concentration, EKO-35",0.625 µg/mL
same,MIC,"E. coli ΔtolC; Escherichia coli, 18 h, read-out: Minimum Inhibitory Concentration, ΔtolC",0.625 µg/mL
same,"Minimum inhibitory concentration (MIC), ΔtolC","E. coli ΔtolC; Table 10, without pore, technical duplicate",0.625 µg/mL
same,MIC,"[1]; Table 10, without pore, read-out: Minimum inhibitory concentration (MIC), K-12",160 µg/mL
same,MIC,"[1]; Table 13A, non-porinated, read-out: Minimum Inhibitory Concentration, K-12",160 µg/mL
same,MIC,EKO-35 araC::acrB,160 µg/mL
same,efflux pump-mediated resistance vs EKO-35,EKO-35 araC::acrD; AcrD,confirmed
same,MIC,"EKO-35 araC::acrD; Escherichia coli, Table 13A, non-porinated, technical duplicate, read-out: Minimum Inhibitory Concentration, EKO-35 araC::acrD",160 µg/mL
same,MIC,EKO-35 araC::mdtBC,0.625 µg/mL
same,MIC,[2],20 µg/mL
same,MIC,"EKO-35-Pore; Table 10, with pore, read-out: Minimum inhibitory concentration (MIC), Pore EKO-35",0.313 µg/mL
same,MIC,"EKO-35-Pore; Table 14A, porinated, read-out: Minimum inhibitory concentration, EKO-35-Pore",0.313 µg/mL
same,Effect,"wild-type E. coli K-12; K-12, NMP + antibiotic",Synergistic
same,FICI,"wild-type E. coli K-12; K-12, NMP + antibiotic",0.375
same,Effect,"wild-type E. coli K-12; K-12, PAβN + antibiotic",Synergistic
same,FICI,"wild-type E. coli K-12; K-12, PAβN + antibiotic",0.188
same,MICb Alone,"wild-type E. coli K-12; K-12, antibiotic alone (PAβN checkerboard)",512 µg/mL
same,MICb Combined,"wild-type E. coli K-12; K-12, antibiotic in combination with PAβN",32 µg/mL
same,Effect,"wild-type E. coli K-12; strain K-12, NMP + antibiotic",Synergistic (Synergy (FICI ≤0.5))
same,FICI,"wild-type E. coli K-12; strain K-12, NMP + antibiotic",0.375
same,MICb Alone,"wild-type E. coli K-12; strain K-12, antibiotic alone",512 µg/mL
same,Effect,"[3]; EKO-35 acrB, NMP + antibiotic",Additive
same,Effect,"[3]; EKO-35 acrB, PAβN + antibiotic",Synergistic
same,FICI,"[3]; EKO-35 acrB, PAβN + antibiotic",0.125
same,MICb Alone,"[3]; EKO-35 acrB, antibiotic alone (PAβN checkerboard)",1024 µg/mL
same,MICb Combined,"[3]; EKO-35 acrB, antibiotic in combination with PAβN",64 µg/mL
same,Effect,"[3]; EKO-35 acrD, NMP + antibiotic",Additive
same,FICI,"[3]; EKO-35 acrD, NMP + antibiotic",0.750
same,Effect,"[3]; EKO-35 acrD, PAβN + antibiotic",Synergistic
same,FICI,"[3]; EKO-35 acrD, PAβN + antibiotic",0.156
same,MICb Combined,"[3]; EKO-35 acrD, antibiotic in combination with PAβN",16 µg/mL
same,Effect,"[3]; EKO-35 acrEF, NMP + antibiotic",Synergistic
same,Effect,[3]; [4],Synergistic
same,FICI,[3]; [4],0.133
same,MICb Alone,"[3]; EKO-35 acrEF, antibiotic alone (PAβN checkerboard)",256 µg/mL
same,MICb Combined,"[3]; EKO-35 acrEF, antibiotic in combination with PAβN",2 µg/mL
same,Effect,"[3]; strain EKO-35 acrB, NMP + antibiotic",Additive (additive (FICI >0.5-1.0))
same,MICb Combined,"[3]; strain EKO-35 acrB, antibiotic in combination with NMP",16 µg/mL
same,Effect,[3]; [5],Additive (additive (FICI >0.5-1.0))
same,FICI,[3]; [5],0.750
same,MICb Combined,"[3]; strain EKO-35 acrD, antibiotic in combination with NMP",32 µg/mL
same,Effect,"[3]; strain EKO-35 acrEF, NMP + antibiotic",Synergistic (Synergy (FICI ≤0.5))
same,MICb Alone,"[3]; strain EKO-35 acrEF, antibiotic alone",256 µg/mL
same,MICb Combined,"[3]; strain EKO-35 acrEF, antibiotic in combination with NMP",64 µg/mL

# — patent publication US20230407243A1, “GENETIC PLATFORM TO INVESTIGATE THE FUNCTIONS OF BACTERIAL DRUG EFFLUX PUMPS” (priority 2022, published 2023)
